Here are results for one molecule from patent US20030144219A1, “Formulations and methods for treatment or amelioration of inflammatory conditions” (priority 2001, published 2003).

Series [1] in a line: Human ingestion of DHA in studies in support of the invention. The conditions noted are these: approximately 800 mg DHA daily. The series is classed as in vivo. As for the experimental part:
The average dietary intake of DHA (10-60 mg/day) in the American diet is relatively low in comparison to intake in countries where fish or fish products comprise higher percentages of the diet. […] Generally, ranges of about 10-10,000 mg, or more specifically, about 50-2000 mg, or 100-1000 mg will-be preferred. […] Appropriate dosages of other polyunsaturated fatty acids can be estimated with reference to this study, based on known safe ingestion levels, or may be determined empirically, with the guidance provided herein.

For series [2] the following is noted: 3.6 gm DHA per day ingested by humans; cited from earlier work.

Regarding `CC/C=C\C/C=C\C/C=C\C/C=C\C/C=C\C/C=C\CCC(=O)O` [DHA, all-cis 4,7,10,13,16,19-docosahexaenoic acid], the adverse effects result in series [1] is “no apparent adverse effects”. In series [2], the toxicities result was “no apparent toxicities”.
